# Measurements as given in patent US20120009152A1, “NITRIC OXIDE DONORS FOR TREATMENT OF DISEASE AND INJURY” (priority 2002, published 2012).
# Key:
# rat VEGF [1] = test: ELISA for VEGF in ischemic boundary regions; type: in vivo; conditions: control 13.4±1.5
# Description: (§1) DETANONOate (0.4 mg/kg) was intravenously administered to rats (n=8) 24 hours after stroke and daily (i.p) for an additional 6 consecutive days. Ischemic rats (n=8) treated with the same volume of decayed DETANONOate were used as a control group. All rats were sacrificed 14 days after stroke. 2) To examine the effect of exogenous NO on brain levels of VEGF, DETANONOate (0.4 mg/kg) or saline was administered to ischemic rats (n=3 for each group) with the identical paradigm described in Protocol 1. These rats were sacrificed 7 days after stroke. […] Rats were sacrificed 14 days after stroke.
# The ischemic boundary regions and homologous tissue in the contralateral hemisphere were dissected. The tissue was homogenized and centrifuged at 10,000 g for 20 min at 4° C. and the supernatant was collected. ELISA for VEGF in the supernatants was performed using a commercially available kit specific for rat VEGF (R&D, systems) according to the manufacture's instruction.
# [2] = system: Mouse brain-derived endothelial cells; test: Capillary-like tube formation assay; type: cell-based
# Description: An in vitro angiogenesis assay was performed. Briefly, 0.8 ml of growth factor reduced Matrigel (Becton Dickinson) was added to pre-chilled 35 mm culture dishes and allowed to polymerize at 37° C. for 2 to 5 hours. […] For quantitative measurements of capillary tube formation, three random areas of Matrigel dishes were imaged and the length of continuous cords of three or more cells was measured.
# [3] = system: cerebral vessels in the ischemic boundary regions; test: Angiogenesis in ischemic brain after embolic MCA occlusion (vascular perimeters, BrdU endothelial cells, three dimensional vessel analysis); type: in vivo, rat
# Description: Male Wistar rats weighing 320-380 gm were employed. The middle cerebral artery (MCA) was occluded by placement of an embolus at the origin of the MCA.
# as §1
# Bromodeoxyuridine (BrdU, Sigma Chemical), the thymidine analog that is incorporated into the DNA of dividing cells during S-phase, was used for mitotic labeling. BrdU (50 mg/kg) was […] (i.p) daily for 13 consecutive days into ischemic rats starting 1 day after MCA occlusion.
# To examine neovascularization in ischemic brain, fluorescein isothiocyanate (FITC) dextran (2×10^6 molecular weight, Sigma, St. Louis, Mo.; 0.1 ml of 50 mg/ml) was administered intravenously to the ischemic rats subjected to 14 days of MCAo. Ti brains were rapidly removed from the severed heads and placed in 4% of paraformaldehyde at 4° C. for 48 hours. Coronal sections (100 μm) were cut on a vibratome. The vibratome sections were analyzed with a Bio-Rad MRC 1024 (argon and krypton) laser-scanning confocal imaging system mounted onto a Zeiss microscope (Bio-Rad; Cambridge, Mass.), as previously described. Seven 100 μm thick vibratome coronal sections at 2 mm intervals from bregma 5.2 mm to bregma −8.8 mm from each animal injected with FITC-dextran were selected. Eight brain regions in the ipsilateral and contralateral hemispheres were selected within a reference coronal section (interaural 8.8 mm, bregma 0.8 mm). These regions were scanned in 512×512 pixel (276×276 μm^2) format in the x-y direction using a 4× frame-scan average and twenty-five optical sections along the z-axis with a 1 μm step-size were acquired under a 40× objective. Vascular branch points, segment lengths and diameters were measured in three dimensions using software developed in the laboratory. Image acquisition and analysis were performed blindly.
# For BrdU immunostaining, DNA was first denatured by incubating brain sections (6 μm) in 50% formamide 2×SSC at 65° C. for 2 hours and then in 2N HCl at 37° C. for 30 minutes. Sections were then rinsed with tris buffer and treated with 1% of H2O2 to block endogenous peroxidase. Sections were incubated with a mouse monoclonal antibody (mAb) against BrdU (1:1000, Boehringer Mannheim, Indianapolis, Ind. overnight and incubated with biotinylated secondary antibody (1:200, Vector, Burlingame, Calif.) for 1 hour.
# To quantify BrdU immunoreactive endothelial cells, numbers of endothelial cells and numbers of BrdU immunoreactive endothelial cells in ten enlarged vessels adjacent to the ischemic lesion were counted from each rat. Numbers of endothelial cells and BrdU immunoreactive endothelial cells in the ten vessels of the contralateral homologous area were also counted. Data are presented as percentage of BrdU immunoreactive endothelial cells to total endothelial cells in ten enlarged vessels from each rat.
# Vascular perimeters were measured on coronal sections immunostained with an anti-von Willebrand factor antibody as previously described.
# [4] = system: BrdU positive cells in the subventricular zone; test: BrdU positive cells in ipsilateral subventricular zone, combination study; type: in vivo, rat; conditions: treatment 1 day after MCAo; NN 0.4 mg/kg IP, hMSCs 1×10^6 cells iv; PBS control 29.8±8.8
# Description: (§2) Male Wistar rats (n=32) were subjected to middle cerebral artery occlusion (MCAo) and were randomized with 8 rats in four treatment groups, with treatment initiated 1 day after stroke. Groups included: 1) phosphate buffered saline (PBS); 2) subtherapeutic DETA-NONOate (NN) at a dose of 0.4 mg/kg (IP); 3) subtherapeutic hMSCs (1×10^6 cells-iv); and 4) combination subtherapeutic NN and hMSCs. Functional outcome measurements consisted of a Neurologic Severity Scale (18 point scale) (NSS) and the Adhesive Removal Test performed prior to stroke, immediately before treatment and at 7 and 14 days after treatment. […] However, there was an overall hMSC effect on NSS at 14 days.
# BrdU (50 mg/kg-ip) was injected daily for 14 days after treatment in all groups. BrdU is a thymidine analog that labels newly formed DNA and thereby identifies newly formed cells. […] BrdU found in the cytoplasm of macrophage-like cells were not counted. […] The percentage of BrdU reactive cells that express NeuN and GFAP proteins was approximately, 3%, 3% and 6%, respectively.
# rat VEGF [5] = test: Sandwich ELISA of VEGF secretion from endogenous cells after MCAo; type: in vivo; conditions: vs MCAo control group
# Description: as §2
# To obtain insight into the mechanisms associated with the induction of angiogenesis and neurogenesis, the fact that combination therapy induces the expression of neurotrophic and growth factors in brain was tested. Data are presented on the levels of vascular endothelial growth factor (VEGF) in brain after treatment with MSCs.
# [6] = DETANONOate 0.4 mg/kg, three dimensional analysis
Structure (SMILES),"VEGF levels in the ischemic boundary (rat VEGF [1]; Sildenafil treated ischemic rats, n=3 per group) [pg/mL]",capillary-like tube formation ([2]; Sildenafil 100 to 500 nM),"angiogenesis in ischemic brain ([3]; Sildenafil 2 mg/kg fed from 24 h after stroke, daily 7 days, 14 days after stroke)","VEGF levels in the ischemic boundary regions (rat VEGF [1]; DETANONOate 0.4 mg/kg from 24 h after stroke, 7 days after stroke, n=3) [pg/mL]","capillary-like tube formation ([2]; DETANONOate 0.2 μM, 3 hours, vs DMEM only)","vessel enlargement in the contralateral hemisphere ([3]; DETANONOate 0.4 mg/kg from 24 h after stroke for 7 days, 14 days after stroke)","vascular perimeters around the ischemic lesion ([3]; DETANONOate 0.4 mg/kg from 24 h after stroke for 7 days, 14 days after stroke, vs decayed DETANONOate control)","numbers of proliferated (BrdU immunoreactive) endothelial cells ([3]; DETANONOate 0.4 mg/kg from 24 h after stroke for 7 days, vs control)","capillary segment diameters [3, 6]","capillary segment lengths [3, 6]","numbers of capillary segments in the boundary regions of ischemia ([3]; DETANONOate 0.4 mg/kg, three dimensional analysis, vs decayed DETANONOate)",BrdU positive cells in the ipsilateral hemisphere subventricular zone [4],VEGF secretion from endogenous cells (rat VEGF) (rat VEGF [5])
CCCc1nn(C)c2c(=O)[nH]c(-c3cc(S(=O)(=O)N4CCN(C)CC4)ccc3OCC)nc12 [Sildenafil],34.4 ± 2.9,concentration-dependent capillary-like tube formation,significant increase of angiogenesis,–,–,–,–,–,–,–,–,–,–
"NCCN(CCN)/[N+]([O-])=N/O [DETANONOate, (Z)-1-[N-(2-aminoethyl)-N-(2-ammonioethyl)aminio]diazen-1-ium-1,2-diolate]",–,–,–,28.9 ± 1.0,significant increase in capillary-like tube formation,did not enlarge vessels in the contralateral hemisphere,significantly (P<0.01) enlarged vascular perimeters,significantly (p<0.05) increased,significantly smaller diameters,shorter segment lengths,significantly (p<0.05) increased the numbers of capillary segments,43.6±10.0 /section,did not show a significant increase
